# Test results: patent US20060079453A1, “Hla binding peptides and their uses” (priority 2002, published 2006)
# Read-outs that look alike come from different tables or passages of the source. No end group written: not given here.
# Assays:
# Experiment in all cases: biochemical
# Format in all cases: binding
# HLA-DR DRB1*1501 (DR15) = HLA-DR DRB1*1501 (DR15) (Homo sapiens, UniProt P01903+P01911); settings: DRBI *1501
# HLA-DR DRB5*0101 (DR51) = HLA-DR DRB5*0101 (DR51) (Homo sapiens, UniProt P01903+Q30154)
# HLA-DR DRB1*0101 (DR1) = HLA-DR DRB1*0101 (DR1) (Homo sapiens, UniProt P01903+P01911, A100R/D57E/F55L/F60I/F76Y/I96L/L162R/M171V/P40L/Q125E/R42F/V115G/Y59C)
# HLA-DR DRB4*0101 (DR53) = HLA-DR DRB4*0101 (DR53) (Homo sapiens, UniProt P01903+P13762, G164S)
# HLA-DR DRB1*0401 (DR4) = HLA-DR DRB1*0401 (DR4) (Homo sapiens, UniProt P01903+P01911, A100K/A169T/F76Y/I96L/K127E/L162R/M171V/N62H/P40V/Q125Y/R42H/S133A/S149N/S66Y/V115G/V209L/W38E)
# HLA-DR DRB1*0701 (DR7) = HLA-DR DRB1*0701 (DR7) (Homo sapiens, UniProt P01903+P01911, A100R/A102G/A103Q/D57E/D86V/E43K/F76Y/K127E/L162R/M171V/P40G/Q125H/Q99D/R33Q/R42Y/R54Q/S133A/S66F/T210M/V115G/Y107V/Y59L/Y89S)
# HLA-DR DRB1*1302 (DR13) = HLA-DR DRB1*1302 (DR13) (Homo sapiens, UniProt P01903+P01911, A100E/A169T/K41T/L162R/M171V/P40S/Q125H/Q178H/Q39Y/Q99D/R42S/S66N/T262R/V115G/W38E/Y61H); settings: read-out: DRBI *1302
# Sequence of HLA-DR DRB1*1302 (DR13) (P01903 26-254 limits assumed, other chains not shown): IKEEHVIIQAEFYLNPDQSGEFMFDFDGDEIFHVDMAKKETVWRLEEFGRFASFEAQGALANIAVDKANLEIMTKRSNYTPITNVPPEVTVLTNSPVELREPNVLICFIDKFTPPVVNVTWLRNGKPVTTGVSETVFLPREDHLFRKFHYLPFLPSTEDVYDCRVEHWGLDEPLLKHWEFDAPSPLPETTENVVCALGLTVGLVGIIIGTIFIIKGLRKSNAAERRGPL
substance,measurement,setting,value
FLYGALLLAEGFYTTGAVRQ,IC50,HLA-DR DRB1*1501 (DR15),45 nM
same,IC50,HLA-DR DRB5*0101 (DR51); DRB5 *0101,0.256 µM
FSYFPSI [FSYFPSI],IC50,HLA-DR DRB1*0101 (DR1); DRB1 *0101,≥ 50000 nM
GRLEYCLKDRRNFDI,IC50,HLA-DR DRB5*0101 (DR51); DRB5 *0101,64.7 µM
HFFKNIVTPRTPPY,IC50,HLA-DR DRB1*1501 (DR15),460 nM
same,IC50,HLA-DR DRB5*0101 (DR51); DRB5 *0101,0.377 µM
IRNLALQTLP,IC50,HLA-DR DRB4*0101 (DR53); DRB4 *0101,3 nM
IRNLALQTLPAM,IC50,HLA-DR DRB4*0101 (DR53); DRB4 *0101,2 nM
IRNLALQTLPAMCNVY,IC50,HLA-DR DRB4*0101 (DR53); DRB4 *0101,1.9 nM
KQPFRPQQPYPQ,IC50,HLA-DR DRB4*0101 (DR53); DRB4 *0101,56 nM
KSLLSTNLPYGRTNL,IC50,HLA-DR DRB1*0401 (DR4); DRB1 *0401,690 nM
same,IC50,HLA-DR DRB1*0701 (DR7); DRB1 *0701,50 µM
KYVKQNTLKLAT,IC50,HLA-DR DRB1*0401 (DR4),6.2 nM
same,IC50,HLA-DR DRB1*0101 (DR1),9.9 nM
LEDLLMGTLGIVCPI,IC50,HLA-DR DRB1*1302 (DR13),1690 nM
same,IC50,HLA-DR DRB4*0101 (DR53); read-out: DRB4 *0101,1800 nM
same,IC50,HLA-DR DRB5*0101 (DR51); read-out: DRB5 *0101,9.48 µM
LGQQQPFPPQ,IC50,HLA-DR DRB4*0101 (DR53); DRB4 *0101,151 nM
NLALQTLPAMCNVY,IC50,HLA-DR DRB4*0101 (DR53); DRB4 *0101,27 nM
NPVVHFFKNIVT,IC50,HLA-DR DRB1*1501 (DR15),23 nM
same,IC50,HLA-DR DRB5*0101 (DR51); DRB5 *0101,10 µM
P(X)KQNTLKLAT,IC50,HLA-DR DRB1*0101 (DR1); read-out: DRB1 *0101,1.7 nM
PAYEKLSAEQSPPPY,IC50,HLA-DR DRB1*0401 (DR4); DRB1 *0401,479 nM
PEFLEQRRAAVDTYC,IC50,HLA-DR DRB1*0401 (DR4); DRB1 *0401,80000 nM
same,IC50,HLA-DR DRB1*0101 (DR1); DRB1 *0101,5000 nM
PFRPQQPYPQ,IC50,HLA-DR DRB4*0101 (DR53); DRB4 *0101,42 nM
PKPFRPQQPYPQ,IC50,HLA-DR DRB4*0101 (DR53); DRB4 *0101,3.4 nM
PKYFKQGFLKGAT,IC50,HLA-DR DRB1*0401 (DR4),800 nM
same,IC50,HLA-DR DRB1*0101 (DR1),≥ 50000 nM
PKYFKQRLLKFAT,IC50,HLA-DR DRB1*0401 (DR4); read-out: DRB1 *0401,400 nM
PKYGKQIDLKGAT,IC50,HLA-DR DRB1*0101 (DR1); DRB1 *0101,≥ 50000 nM
PQPFKPQQPYPQ,IC50,HLA-DR DRB4*0101 (DR53); DRB4 *0101,19 nM
PQPFRKQQPYPQ,IC50,HLA-DR DRB4*0101 (DR53); DRB4 *0101,22 nM
PQPFRPQKPYPQ,IC50,HLA-DR DRB4*0101 (DR53); DRB4 *0101,22 nM
PQPFRPQQP,IC50,HLA-DR DRB4*0101 (DR53); DRB4 *0101,19 nM
PQPFRPQQPYKQ,IC50,HLA-DR DRB4*0101 (DR53); DRB4 *0101,35 nM
PQPFRPQQPYP,IC50,HLA-DR DRB4*0101 (DR53); DRB4 *0101,14 nM
PQPFRPQQPYPK,IC50,HLA-DR DRB4*0101 (DR53); DRB4 *0101,22 nM
PQPFRPQQPYPQ,IC50,HLA-DR DRB4*0101 (DR53); DRB4 *0101,15 nM
QFLGQQQPF,IC50,HLA-DR DRB4*0101 (DR53); DRB4 *0101,5.3 nM
QFLGQQQPFPP,IC50,HLA-DR DRB4*0101 (DR53); DRB4 *0101,2.3 nM
QFLGQQQPFPPQ,IC50,HLA-DR DRB4*0101 (DR53); DRB4 *0101,2.8 nM
QKQLLTNHLINTPKI,IC50,HLA-DR DRB4*0101 (DR53); read-out: DRB4 *0101,904 nM
QKQVQMMIMTKFMGV,IC50,HLA-DR DRB1*0101 (DR1); read-out: DRB1 *0101,121 nM
same,IC50,HLA-DR DRB1*0701 (DR7); read-out: DRB1 *0701,3.62 µM
QKWAAVVVPS,IC50,HLA-DR DRB1*0401 (DR4); DRB1 *0401,1000 nM
same,IC50,HLA-DR DRB1*0101 (DR1); DRB1 *0101,≥ 50000 nM
QNILFSNAPLGPQFP,IC50,HLA-DR DRB1*0401 (DR4); DRB1 *0401,195 nM
RNGYRALMDKSLHVGTQCALTRR,IC50,HLA-DR DRB1*0401 (DR4); DRB1 *0401,512 nM
TWQLNGEELIQDM,IC50,HLA-DR DRB1*0101 (DR1); read-out: DRB1 *0101,≥ 50000 nM
VGIRTPVLTSLFNKV,IC50,HLA-DR DRB4*0101 (DR53); read-out: DRB4 *0101,97 nM
same,IC50,HLA-DR DRB5*0101 (DR51); read-out: DRB5 *0101,0.08 µM
YAR(15A)RQTTLKA,IC50,HLA-DR DRB1*0401 (DR4); read-out: DRB1 *0401,0.35 nM
same,IC50,HLA-DR DRB1*0101 (DR1); read-out: DRB1 *0101,1.6 nM
same,IC50,HLA-DR DRB1*0701 (DR7); read-out: DRB1 *0701,8.33 µM
YARFLALTTLRARA,IC50,HLA-DR DRB1*0401 (DR4); read-out: DRB1 *0401,0.28 nM
same,IC50,HLA-DR DRB1*0101 (DR1); read-out: DRB1 *0101,0.98 nM
YFNNFTVSFWLRVPK,IC50,HLA-DR DRB1*0101 (DR1),≥ 50000 nM
YSFFPSI [YSFFPSI],IC50,HLA-DR DRB1*0101 (DR1); DRB1 *0101,≥ 50000 nM
